Values of other authors as cited in US7393852B2, “Piperazine derivatives and methods of use” (Amgen Inc., priority 2003, dated 2008).
Peptide text beside a SMILES is read from it.

NC(N)=NCCC[C@H](NC(=O)[C@H](Cc1ccccc1)NC(=O)[C@@H]1CCCN1C(=O)[C@H](CO)NC(=O)[C@H](Cc1ccccc1)NC(=O)CNC(=O)[C@@H]1CCCN1C(=O)[C@@H]1CCCN1C(=O)[C@@H](N)CCCN=C(N)N)C(=O)O [BK, Bradykinin] (H-RPPGFSPFR-OH)
half-life of BK in plasma: approximately 17 seconds
